Patent US8597666B2, “Compressed solid dosage form manufacturing process well-suited for use with drugs of low aqueous solubility and compressed solid dosage forms made thereby” (Teva Pharmaceutical Industries, Ltd., priority 2004, dated 2013)
Structures can show the parent of a compound that is named as a salt.

Legend:
[1] = Particle size distribution by laser light scattering (Malvern Mastersizer S); assay type: physicochemical; details: raloxifene hydrochloride used in Formulations 1-4; mean equivalent spherical diameter
From the text: All particle sizes herein refer to the mean equivalent spherical diameter measured by laser light scattering techniques. Thus, the notation “d(0.5) greater than about 35 μm” means that 50% of the particles by volume have a mean equivalent spherical diameter of more than about 35 μm, as measured by laser light scattering. The laser light scattering measurement instrument used to measure the particle size distributions in the Examples was a Malvern Mastersizer® S. The dissolution profile was generated by testing in either 900 mL or 2 L of a 0.1% aqueous polysorbate 80 solution, using paddle apparatus (USP Apparatus II) at 50 rpm at 37° C.

[2] = starch content increased from 5 to 20%; tablets made by double compression; cited from earlier work

particle size d(0.5) [1]	particle size d(0.9) [1]	SMILES	increase in rate of dissolution of salicylic acid from tablets [2]
38.8 μm	90.4 μm	O=C(c1ccc(OCCN2CCCCC2)cc1)c1c(-c2ccc(O)cc2)sc2cc(O)ccc12 [raloxifene hydrochloride]	
		O=C(O)c1ccccc1O [salicylic acid]	three fold
